Measured values as given in paper PMC9860125 (The Journal of Biological Chemistry, 2022).

Experiments:
EmrE [1] = target: T1, EmrE (Escherichia coli, UniProt P23895); test: SSME transport with purified EmrE in proteoliposomes, empty liposome control; format: biochemical; design: WT-EmrE in POPC proteoliposomes
Glu14 = Glu14 (UniProt position 14, GAILAEVIGTT); test: NMR; details: 45 °C; not stated (no added salt beyond the buffer components); 20 mM sodium acetate, 50 mM Mes, 50 mM Mops, 100 mM bicine, 2 mM TCEP, 0.01% sodium azide; Saturated with 2H-dTPP2+ (at least 4x the EmrE monomer concentration). Alternating access is in slow exchange, and the substrate is associated asymmetrically with subunit A.
EmrE [2] = target: T1, EmrE; test: ITC (pH […] ºC); NMR pH titration; ZZ-exchange NMR; format: binding; design: WT EmrE, antiparallel homodimer, in DMPC/DHPC isotropic bicelles

T1 sequence (P23895 whole entry): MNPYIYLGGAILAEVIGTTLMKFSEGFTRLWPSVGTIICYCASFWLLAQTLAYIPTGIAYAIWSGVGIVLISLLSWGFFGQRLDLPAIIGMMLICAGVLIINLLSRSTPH

Compound	SSME transport with purified EmrE in proteoliposomes, empty liposome control (EmrE [1])	Kd (EmrE [2]) [µM]	also measured
C[n+]1ccc(-c2cc[n+](C)cc2)cc1 [MV2+, methyl viologen]	Addition of the substrate gradient resulted in increased net flux compared with drug-free conditions, consistent with net symport		
EmrE (small multidrug resistance transporter) (Escherichia coli)			pKa (Glu14): 6.2 ± 0.1
c1ccc(C(c2ccccc2)(c2ccccc2)c2ccc([P+](c3ccccc3)(c3ccccc3)c3ccccc3)cc2)cc1 [dTPP+, triphenyl[4-(triphenylmethyl)phenyl]phosphonium iodide]		9.3 ± 0.3	
CC[n+]1c(-c2ccccc2)c2cc(N)ccc2c2ccc(N)cc21 [Eth+, ethidium]	observed signal under these conditions is transport dependent on the protein as empty controls show minimal signal		
c1ccc([P+](c2ccccc2)(c2ccccc2)c2ccc([P+](c3ccccc3)(c3ccccc3)c3ccccc3)cc2)cc1 [dTPP2+, 1,4-phenylenebis(triphenylphosphonium) bromide]		8.1 ± 0.4	
